Laboratory results as given in US9732094B2, “Arylquinazolines” (Merck Patent GmbH, priority 2013, dated 2017).
Where two headings read alike, the source gives them in different places.

Assays:
[1] = target: Kv11.1 (hERG) (Homo sapiens (Human), UniProt Q12809); assay: Kv11.1 (hERG) ion channel activity (patch clamp assay), HEK293 cells transfected with hERG gene
Method: C) Kv11.1 (hERG) Ion Channel Activity (Patch Clamp Assay)
The patch-clamp measurement was carried out at room temperature in whole-cell configuration on human embryonic kidney cells (HEK293) which have been transfected in a stable manner with the hERG gene.
The whole-cell configurations were carried out using an automated patch clamp device (Patchliner™, Nanion Technologies, Munich). […] The glass chip has a hole of defined size to which the cell is transferred into the Gigaseal by application of a reduced pressure and brought into the whole-cell configuration. Buffer, cell suspension and test substances were added to microchannels of the chip using a Teflon-coated pipette. The cells were clamped to a holding potential of −80 mV. For measurement of substance-promoted inhibition of the Kv11.1 channel, the following voltage protocol was applied at 10-second intervals: 51 ms/−80 mV, 500 ms/+40 mV, 500 ms/−40 mV, 200 ms/−80 mV. The leakage current is subtracted by means of the P4 method. The cells were resuspended in extracellular buffer (EC) and applied to the chip. After the cell had been collected, the seal was improved by addition of a seal enhancer buffer. As soon as the whole-cell configuration had been reached, the seal enhancer buffer was washed out and replaced by extracellular buffer. The measurement started in EC for 1.5 min. DMSO (vehicle control, 0.1% of DMSO) was then applied, and the control current was recorded for 3 min. The test substance was subsequently added twice in the same concentration, and the potassium current was measured for 3.5 min in each case.
The reference substance used was the Kv11.1 (hERG) ion channel blocker quinidine. The effects of test substances and quinidine were standardised to the associated vehicle control. The effect on the Kv11.1 (hERG) channel activity was assessed from the potassium current at −40 mV. For the calculation, the current was evaluated for the respective final trace.
During the measurement, an aliquot of the test substance was taken for concentration determination. The sample was measured immediately by HPLC, and the final concentration was determined from a calibration curve.

[2] = target: DNA-PK (Homo sapiens (Human), UniProt P78527); assay: DNA-PK assay (biochemical), flashplate 33P-ATP kinase assay
In short: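 Radiometric kinase reaction in streptavidin-coated flashplates, stopped with 200 mM EDTA, then 30 min room-temperature incubation and saline washes.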

[3] = target: DNA-PK phosphorylation at serine 2056 (Homo sapiens (Human), UniProt P78527); assay: DNA-PK phosphorylation at serine 2056 (cellular), bleomycin-treated HCT116 cells, ELISA; type: cell-based; conditions: read-out: IC50 pDNA-PK
In short: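 Chemiluminescent ELISA read-out; phospho-specific signal normalised to total DNA-PKcs. Cells (HCT116) exposed 6 h to test compound plus 10 μM bleomycin to induce double-strand breaks; DMSO control served as blank.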

[4] = read-out: Ki [Kv1.11 hERG], Table 7
[5] = Ki [Kv1.11 hERG], hERG patch clamp assay (cells without asterisk)
[6] = cellular DNA-PK phosphorylation at serine 2056, HCT116
[7] = read-out: Ki [Kv1.11 hERG], hERG patch clamp assay (cells without asterisk)

Chain of Kv11.1 (hERG) (Q12809 whole entry): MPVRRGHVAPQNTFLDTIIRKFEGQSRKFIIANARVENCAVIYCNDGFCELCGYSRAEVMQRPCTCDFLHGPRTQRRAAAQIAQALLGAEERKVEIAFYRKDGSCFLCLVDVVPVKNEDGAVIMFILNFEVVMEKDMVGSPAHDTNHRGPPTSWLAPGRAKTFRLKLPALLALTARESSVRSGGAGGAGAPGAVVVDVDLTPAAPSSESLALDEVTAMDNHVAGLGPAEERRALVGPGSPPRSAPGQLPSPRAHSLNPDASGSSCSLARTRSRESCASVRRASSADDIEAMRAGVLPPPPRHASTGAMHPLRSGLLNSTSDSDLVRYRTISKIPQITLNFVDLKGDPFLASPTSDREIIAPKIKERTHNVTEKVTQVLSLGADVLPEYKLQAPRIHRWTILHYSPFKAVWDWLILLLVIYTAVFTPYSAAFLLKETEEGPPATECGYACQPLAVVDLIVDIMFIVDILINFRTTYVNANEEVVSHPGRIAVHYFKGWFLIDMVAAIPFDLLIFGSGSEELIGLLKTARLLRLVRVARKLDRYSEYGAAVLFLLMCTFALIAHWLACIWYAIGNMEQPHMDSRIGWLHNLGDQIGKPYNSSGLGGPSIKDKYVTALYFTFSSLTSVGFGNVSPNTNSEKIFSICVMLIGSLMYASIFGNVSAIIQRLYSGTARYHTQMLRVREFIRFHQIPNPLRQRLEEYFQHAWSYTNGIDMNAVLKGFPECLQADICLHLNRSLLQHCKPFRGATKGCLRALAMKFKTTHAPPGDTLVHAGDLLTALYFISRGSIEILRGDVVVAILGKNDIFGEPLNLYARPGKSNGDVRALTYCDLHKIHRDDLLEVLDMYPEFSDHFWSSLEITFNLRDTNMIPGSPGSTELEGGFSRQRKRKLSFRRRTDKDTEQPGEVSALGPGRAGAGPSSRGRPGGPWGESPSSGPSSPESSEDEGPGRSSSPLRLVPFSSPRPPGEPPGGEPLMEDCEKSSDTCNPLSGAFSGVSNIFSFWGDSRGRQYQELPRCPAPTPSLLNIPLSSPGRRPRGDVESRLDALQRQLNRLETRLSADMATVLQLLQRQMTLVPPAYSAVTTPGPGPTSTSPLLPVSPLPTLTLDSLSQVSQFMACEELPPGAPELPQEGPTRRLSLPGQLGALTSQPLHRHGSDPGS

SMILES | Ki ([1]; Ki [Kv1.11 hERG], Table 7) [nM] | IC50 ([2]; Table 7) [nM] | IC50 ([3]; Table 7, HCT116 cells) [nM] | Ki [1, 4] [nM] | Ki [1, 5] [nM] | IC50 ([2]; biochemical DNA-PK assay) [nM] | IC50 [3, 6] [nM] | Ki [1, 7] [nM]
Cn1nc(C(O)c2cc(-c3ncnc4cc(N5CCOCC5)ccc34)c(F)cc2F)ccc1=O (stereo not drawn) [Example 219, 6-{[2,4-Difluoro-5-(7-morpholin-4-yl-quinazolin-4-yl)-phenyl]hydroxy-methyl}-2-methyl-2H-pyridazin-3-one] | 15000 to 25000 | 3 to 7 | 500 to 5000 |  |  |  |  | 
Cn1nc(C(O)c2ccc(F)c(-c3ncnc4cc(N5CCOCC5)ccc34)c2F)ccc1=O (stereo not drawn) [Example 220, 6-{[2,4-Difluoro-3-(7-morpholin-4-yl-quinazolin-4-yl)-phenyl]hydroxy-methyl}-2-methyl-2H-pyridazin-3-one] |  | > 30 | 5000 to 10000 | > 25000 |  |  |  | 
COc1ccc(C(O)c2cc(-c3ncnc4cc(N5CCOCC5)ccc34)c(F)cc2F)cn1 (stereo not drawn) [Example 221, [2,4-Difluoro-5-(7-morpholin-4-yl-quinazolin-4-yl)-phenyl]-(6-methoxy-pyridin-3-yl)methanol] | 15000 to 25000 | 3 to 7 | 500 to 5000 |  |  |  |  | 
OC(c1ccc2ncnn2c1)c1cc(-c2ncnc3cc(N4CCOCC4)ccc23)c(F)cc1F (stereo not drawn) [Example 222, [2,4-Difluro-5-(7-morpholin-4-yl-quinazolin-4-yl)-phenyl]-[l,2,4]-triazolo[1,5-a]pyridin-6-ylmethanol] |  | 3 to 7 | 500 to 5000 | > 25000 |  |  |  | 
OC(c1cn2ccnc2cn1)c1cc(-c2ncnc3cc(N4CCOCC4)ccc23)c(F)cc1F (stereo not drawn) [Example 223, [2,4-Difluoro-5-(7-morpholin-4-yl-quinazolin-4-yl)-phenyl]imidazo-[1,2-a]pyrazin-6-yl-methanol] |  | 7 to 30 | 500 to 5000 | > 25000 |  |  |  | 
COc1ccc(C(O)c2cc(-c3ncnc4cc(N5CCOCC5)ccc34)c(F)cc2F)nc1 (stereo not drawn) [Example 224, [2,4-Difluoro-5-(7-morpholin-4-yl-quinazolin-4-yl)-phenyl]-(5-methoxy-pyridin-2-yl)methanol] | 15000 to 25000 | 3 to 7 | 500 to 5000 |  |  |  |  | 
[2H]c1c(N2CCOCC2)cc2ncnc(-c3cc(C(O)c4nccnc4C)ccc3F)c2c1[2H] (stereo not drawn) [Example 226, [3-(5,6-Dideuterio-7-morpholino-quinazolin-4-yl)-4-fluorophenyl]-(3-melhylpyrazin-2-yl)-methanol] |  |  |  |  | > 25000 | 3 to 7 | < 500 | 
COc1ccc(C(O)c2cc(-c3ncnc4cc(N5CCOCC5)cnc34)c(F)cc2Cl)nn1 (stereo not drawn) [Example 227, [2-Chloro-4-fluoro-5-(7-morpholin-4-yl-pyrido[3,2-d}-pyrimidin-4-yl)-phenyl]-(6-methoxy-pyridazin-3-yl)-methanol] |  |  |  |  |  | 3 to 7 | 500 to 5000 | > 25000
COc1ccc(C(O)c2cc(-c3ncnc4cc(N5CCOCC5)cnc34)c(F)cc2Cl)nn1 (stereo not drawn) [Example 228, [2-Chloro-4-fluoro-5-(7-morpholin-4-yl-pyrido[3,2-d}-pyrimidin-4-yl)-phenyl]-(6-methoxy-pyridazin-3-yl)-methanol] |  |  |  |  |  | > 30 | 10000 to 30000 | > 25000
CNC(=O)C(c1cc(-c2ncnc3cc(N4CCOCC4)ccc23)c(F)cc1Cl)c1nccnc1OC (stereo not drawn) [Example 229, 2-[2-Chloro-4-fluoro-5-(7-morpholin-4-yl-quinazolin-4-yl)-phenyl]-2-(3-methoxypyrazin-2-yl)-N-methyl-acetamide] |  |  |  |  |  | 7 to 30 | 500 to 5000 | > 25000
COc1nccnc1C(O)c1cc(-c2ncnc3cc(N4CCOCC4)cnc23)c(F)cc1Cl (stereo not drawn) [Example 231, [2-Chloro-4-fluoro-5-(7-morpholin-4-yl-pyrido[3,2-d}-pyrimidin-4-yl)-phenyl]-(3-methoxy-pyrazin-2-yl)-methanol] |  |  |  |  |  | 7 to 30 | 500 to 5000 | > 25000
COc1nccnc1C(O)c1cc(-c2ncnc3cc(N4CCOCC4)cnc23)c(F)cc1Cl (stereo not drawn) [Example 232, [2-Chloro-4-fluoro-5-(7-morpholin-4-yl-pyrido[3,2-d}-pyrimidin-4-yl)-phenyl]-(3-methoxy-pyrazin-2-yl)-methanol] |  |  |  |  |  | 7 to 30 | 10000 to 30000 | > 25000
Cc1nccnc1[C@@H](O)c1ccc(F)c(-c2ncnc3cc(N4CCOCC4)cnc23)c1 [Example 233, (S)-[4-Fluoro-3-(7-morpholin-4-yl-pyrido[3,2-d}-pyrimidin-4-yl)-phenyl]-(3-methyl-pyrazin-2-yl)-methanol] |  |  |  |  |  | 7 to 30 | 10000 to 30000 | > 25000
Cc1nccnc1[C@H](O)c1ccc(F)c(-c2ncnc3cc(N4CCOCC4)cnc23)c1 [Example 234, (R)-[4-Fluoro-3-(7-morpholin-4-yl-pyrido[3,2-d}-pyrimidin-4-yl)-phenyl]-(3-methyl-pyrazin-2-yl)-methanol] |  |  |  |  |  | < 3 | < 500 | > 25000
Cc1nccnc1C(O)c1ccc(F)c(-c2ncnc3cc(N4CCOCC4)cnc23)c1 (stereo not drawn) [Example 237, [4-Fluoro-3-(7-morpholin-4-ylpyrido[3,2-d]pyrimidin-4-yl)phenyl]-(3-methylpyrazin-2-yl)methanol] |  |  |  |  | 10000 to 15000 | < 3 | < 500 | 
[2H]C1([2H])OC([2H])([2H])C([2H])([2H])N(c2ccc3c(-c4cc(C(O)c5nccnc5C)ccc4F)ncnc3c2)C1([2H])[2H] (stereo not drawn) [Example 238, [4-Fluoro-3-[7-(2,2,3,3,5,5,6,6-octadeuteriomorpholin-4-yl)quinazolin-4-yl]phenyl]-(3-methyl-pyrazin-2-yl)-methanol] |  |  |  |  | 15000 to 25000 | < 3 | < 500 | 
Cc1nccnc1C(O)c1cc(-c2ncnc3cc(N4CCOCC4)cnc23)c(F)cc1Cl (stereo not drawn) [Example 240, [2-Chloro-4-fluoro-5-(7-morpholin-4-yl-pyrido[3,2-d}-pyrimidin-4-yl)-phenyl]-(3-methyl-pyrazin-2-yl)-methanol] |  |  |  |  |  | 7 to 30 | 500 to 5000 | > 25000
[2H]C1([2H])OC([2H])([2H])C([2H])([2H])N(c2ccc3c(-c4cc(C(O)c5nccnc5OC)c(Cl)cc4F)ncnc3c2)C1([2H])[2H] (stereo not drawn) [Example 241, [2-Chloro-4-fluoro-5-[7-(2,2,3,3,5,5,6,6-octadeuteriomorpholin-4-yl)quinazolin-4-yl]phenyl]-(3-methoxypyrazin-2-yl)methanol] |  |  |  |  | 10000 to 15000 | < 3 | < 500 | 
[2H]C1([2H])OC([2H])([2H])C([2H])([2H])N(c2ccc3c(-c4cc(C(O)c5nccnc5OC)c(Cl)cc4F)ncnc3c2)C1([2H])[2H] (stereo not drawn) [Example 242, [2-Chloro-4-fluoro-5-[7-(2,2,3,3,5,5,6,6-octadeuteriomorpholin-4-yl)quinazolin-4-yl]phenyl]-(3-methoxypyrazin-2-yl)methanol] |  |  |  |  | 15000 to 25000 | < 3 | < 500 | 
[2H]C1([2H])OC([2H])([2H])C([2H])([2H])N(c2ccc3c(-c4cc([C@H](O)c5nccnc5C)ccc4F)ncnc3c2)C1([2H])[2H] [Example 243, (S)-[4-Fluoro-3-[7-(2,2,3,3,5,5,6,6-octadeuteriomorpholin-4-yl)quinazolin-4-yl]phenyl]-(3-methylpyrazin-2-yl)methanol] |  |  |  |  |  | 7 to 30 | 500 to 5000 | 15000 to 25000
COc1nccnc1C(O)c1cc(-c2ncnc3cc(N4CCOCC4)cnc23)c(F)cc1Cl (stereo not drawn) [Example 247, [2-Chloro-4-fluoro-5-(7-morpholin-4-yl-pyrido[3,2-d}-pyrimidin-4-yl)-phenyl]-(3-methoxy-pyrazin-2-yl)-methanol] |  |  |  |  | 15000 to 25000 | 7 to 30 | 5000 to 10000 | 
Cc1nccnc1[C@H](O)c1ccc(F)c(-c2ncnc3cc(N4CCOCC4)cc(F)c23)c1 [Example 248, (R)-[4-Fluoro-3-(5-fluoro-7-morpholin-4-ylquinazolin-4-yl)-phenyl]-(3-methyl-pyrazin-2-yl)-methanol] |  |  |  |  |  | < 3 | < 500 | > 25000
COc1ccc(C(O)c2cc(-c3ncnc4cc(N5CCOCC5)cnc34)c(F)cc2Cl)nn1 (stereo not drawn) [Example 257, [2-Chloro-4-fluoro-5-(7-morpholin-4-yl-pyrido[3,2-d}-pyrimidin-4-yl)-phenyl]-(6-methoxy-pyridazin-3-yl)-methanol] |  |  |  |  |  | 3 to 7 | 500 to 5000 | > 25000
COc1ccc(C(O)c2ccc(F)c(-c3ncnc4cc(N5CCOCC5)cc(F)c34)c2)nn1 (stereo not drawn) [Example 260, [4-Fluoro-3-(5-fluoro-7-morpholin-4-yl-quinazolin-4-yl)-phenyl]-(6-methoxy-pyridazin-3-yl)-methanol] |  |  |  |  |  | < 3 | < 500 | > 25000
COc1nccnc1C(C(N)=O)c1cc(-c2ncnc3cc(N4CCOCC4)cc(F)c23)c(F)cc1Cl (stereo not drawn) [Example 261, 2-[2-Chloro-4-fluoro-5-(5-fluoro-7-morpholin-4-yl-quinazolin-4-yl)-phenyl]-2-(3-methoxy-pyrazin-2-yl)acetamide] |  |  |  |  | 15000 to 25000 | 7 to 30 | 500 to 5000 | 
Cc1nccnc1C(O)c1ccc(F)c(-c2ncnc3cc(N4CCOCC4)c(F)cc23)c1 (stereo not drawn) [Example 283, [4-Fluoro-3-(6-fluoro-7-morpholin-4-yl-quinazolin-4-yl)-phenyl]-(3-methyl-pyrazin-2-yl)-methanol] |  |  |  |  |  | 7 to 30 | 10000 to 30000 | > 25000
NC(=O)C(c1ccc(F)c(-c2ncnc3cc(N4CCOCC4)ccc23)c1)c1nncc2sccc12 (stereo not drawn) [Example 285, 2-[4-Fluoro-3-(7-morpholin-4-yl-quinazolin-4-yl)-phenyl]-2-thieno-[2,3-d}pyridazin-4-yl-acetamide] |  |  |  |  | 15000 to 25000 | 3 to 7 | 10000 to 30000 | 
